Test results taken from patent EP4635953A1, “PYRROLOPYRIDINE DERIVATIVE, AND PHARMACEUTICAL COMPOSITION THEREOF AND USE THEREOF” (Iregene Therapeutics Co., Ltd, priority 2022, dated 2024).
Like-named read-outs stand apart in the source and are kept apart here.

Target: single-stranded miR-145
Test: Isothermal titration calorimetry (ITC), Waters Nano-ITC
Format: binding
Settings: for Kd: Multiple Sites model
From the text: Isothermal titration calorimetry (ITC) utilizes the principle of power compensation to accurately obtain the enthalpy change of intermolecular interactions within a broad concentration range in the system through a single concentration scan. It measures the heat change during binding and provides the complete thermodynamic characteristics of nucleic acid-ligand interactions. Quantifying the thermodynamic properties and energy of the complex is essential for analyzing the molecular basis of the interaction between the microRNA miR-145 and the compound. The present invention uses the Waters Nano-ITC calorimeter to in vitro verify the nucleic acid-small molecule interactions.
The experimental process involves placing 300µL of a 50µM single-stranded miR-145 solution in a temperaturecontrolled sample chamber, and using small molecule A-3-6 (i.e., the 2-phenyl-N-(1H-pyrrolo[2,3-c]pyridine-5-yl)acetamide obtained in Example 9) as the ligand in a 50µL, 500µM concentration, which is gradually injected (or titrated) into the sample chamber. The heat change is measured by comparing the sample chamber with a reference chamber, showing either an endothermic or exothermic peak. The interaction pattern between the two reactants is fitted using the software provided by the instrument, and it directly calculates the reaction binding enthalpy (ΔH, kJ/mol), reaction binding entropy (ΔS, J/(mol·K)), number of binding sites (n), and binding equilibrium constant (Ka, M), obtaining the kinetic data. […] The calculated number of binding sites (nSite) for A-3-6 with miR-145 solution are n1=3 and n2=1.8, with Kd1=7.017E-8 and Kd2=7.544E-9, ΔH1=-69.08 and ΔH2=-137.2, ΔS1=-9.474E1 and ΔS2=-3.048E2.

In the case of `O=C(Cc1ccccc1)Nc1cc2cc[nH]c2cn1` [Compound A-3-6, 2-Phenyl-N-(1H-Pyrrolo[2,3-c]pyridin-5-yl)acetamide], the Kd (site 1, read-out: Kd1) is reported as 0.0702 µM, the Kd (site 2, read-out: Kd2) is reported as 0.00754 µM and the “binding to the target single-stranded miR-145” value (conclusion from the ITC experiment) is reported as “can specifically bind”.
